{"source": "patent US20240238237A1", "about": "“CONJUGATED LINOLEIC ACID SUPPLEMENTATION FOR DISEASE TREATMENT” (VIRGINIA TECH INTELLECTUAL PROPERTIES, INC., priority 2021, published 2024)", "format_in_all_cases": "in vivo, mouse", "key": {"[1]": {"tested_on": "WT, PWS (Snord116m+/p−) and PWS-KO (Snord116m−/p−) mice", "test": "Rotarod analysis, Example 1", "details": "end of study", "method": "For rotarod analysis, animals were tested using a Columbus Instruments (Columbus, OH, USA) Economex Rota-Rod apparatus. All mice in the study were given four trials each day during the day (between 11 a.m. and 1 p.m.) for four consecutive days from 0 rpm to a maximum speed of 20 rpm, with an acceleration slope of 2.65%. Animals were tested for a maximum of 5 min of running per test, or until the animals fell off the device. The Economex Rota-Rod apparatus is equipped with a pressure-sensitive landing area so that the time spent on the rotating rod is automatically recorded when the animal falls.\nThe procedure has been previously described. Animals were given between 10 and 15 min of rest in between trials. Note that there are four days of testing, with each day consisting of four trials. The initial trials on Day 1 use a lane where Applicant placed non-slip bathroom tape to provide a stable environment for the animal to learn the procedure. The non-taped lanes were used for Days 2-4. Days 2-3 serve as acclimation days. Day 4 data were used for analysis."}, "[2]": {"tested_on": "N2KO (Nhlh2 deletion) and WT mice", "test": "Body weight, body fat and lean mass in N2KO mice, Example 3", "method": "In males, incidence of HH is as high as one in 4000, with incidence in females being about 2-5 times lower. It was previously shown that mice containing a mutation of Nhlh2, a neuronal basic-helix-loop-helix transcription factor show a failure of pubertal onset, adult-onset obesity and hypogonadism. These mice are termed N2KO mice. […] In this Example, N2KO and WT mice were treated with about 0.5% CLA for 12 weeks."}, "[3]": {"tested_on": "WT, PWS (Snord116m+/p−) and PWS-KO (Snord116m−/p−) mice", "test": "Weekly body weight, fat and lean mass (NMR), rectal temperature and food intake, Example 1", "method": "All animal protocols were approved by the Institutional Animal Care and Use Commit-tee at Virginia Tech. Mice with the Snord116 paternal deletion (B6[Cg]-Snord116tm1.1Uta/J Stock No: 008149|1-loxp (KO), Snord116del) were obtained from Jackson Laboratories and maintained on a C57Bl/6 background. Genotyping and breeding were performed as reported. WT mice for the study were siblings of either the PWS (Snord116m+/p−) or PWS-KO (Snord116m−/p−) mice. PWS mice were generated by crossing WT females and male mice who were Snord116m−/p+. Breeder males (Snord116m−/p+) were generated in separate crosses to inherited their deleted allele from a maternal chromosome so that they were considered phenotypically normal in regards to Snord116 expression. PWS-KO (Snord116m−/p−) mice were generated by using non-sibling male and female mice of the genotype Snord116m−/p+ who had inherited their deleted allele maternally. In this type of mating, 50% of the offspring would be heterozygous (and never used for mating or the study, as the origin of their deleted allele could not be determined), and 25% each would have WT alleles or would be PWS-KO. Mice were housed at room temperature at about 22° C. with 12 h light/dark cycles at 7 a.m. and 7 p.m. and ad-libitum access to food (4.5% crude fat) and water. Mice were weaned at 3 weeks old, genotyped using an ear snip, […]. ear tagged, and housed with littermates of the same sex. For tissue dissection, mice were euthanized by CO2 asphyxiation between 12 p.m. and 2 p.m.\nBody weight, fat, and lean mass, rectal temperature, and food intake were measured weekly. For body weight, fat, and lean mass measurements, mice were weighed on Mondays using a standard scale, and then placed in a Bruker (Billrica, MA, USA) LF90 NMR machine using the mouse holder. Measurements were recorded in grams for fat and lean mass.\nAll values were expressed as mean+SEM unless indicated otherwise. Comparison of means between groups and calculation of p-values were made using JMP Pro15 software (Cary, NC, USA), with Tukey's post hoc analysis for multiple comparisons when overall p-values in the comparison were significant. For the responses of weight, fat, lean mass, temperature, and food intake shown in figures, a fitted least squares regression with effects of genotype, treatment, and genotype×treatment was analyzed for Week 12 data only. Responses of these dependent variables were also analyzed across the 12-week time period, adding in effects of week, week×treatment, and week×genotype. […] The responses that had pre-post measures (wheel running, elevated plus, fasting glucose, glucose tolerance) were analyzed separately for the pre and post time periods (no effect of time). Animals were grouped together for the pre time period, regardless of their assigned data, as all animals were on standard mouse chow at that time. […] Rotarod data were collected only during the post-period and analyzed with a response of time and effects of genotype, treatment, and genotype×treatment. For area-under-the-curve calculations, the formula function in JMP was used to calculate the area for individual animals pre and post, and then fit least squares regression model used for effects of genotype, treatment, and genotype×treatment."}}, "note": "“Also recorded” adds a separate entry of the source.", "data": [{"substance": "conjugated linoleic acid [CLA]", "values": [{"measurement": "Rotarod ability", "setting": "[1]", "result": "not affected"}, {"measurement": "Lean mass, N2KO study", "setting": "[2]; 12 weeks CLA", "result": "significantly improved"}, {"measurement": "Body fat, N2KO mice", "setting": "[2]; about 0.5% CLA for 12 weeks", "result": "reduced; also recorded: decreased body fat; also recorded: significant reduction"}, {"measurement": "Body weight, N2KO mice", "setting": "[2]; about 0.5% CLA for 12 weeks", "result": "reduced body weight; also recorded: improved body weight; also recorded: significant reduction"}, {"measurement": "Body fat, WT control diet more than WT CLA diet", "setting": "[3]; WT mice, end of study", "result": "~4", "unit": "g"}, {"measurement": "Reduction in body fat levels with treatment", "setting": "[3]; all genotypes, vs control HFD alone", "result": 3.6, "unit": "fold"}, {"measurement": "Body weight, overall effect of CLA diet", "setting": "[3]; all three genotypes, 20% fat diet, vs control diet", "result": "significant reductions in body weight overall for the three genotypes"}, {"measurement": "Body weight, post hoc per genotype", "setting": "[3]; each genotype on CLA diet vs control diet", "result": "significant body weight reductions"}, {"measurement": "Lean mass, treatment effect", "setting": "[3]; whole model, 12 weeks", "result": "without a treatment effect"}]}]}
